According to PMC11541572, “Nucleotidyltransferase toxin MenT extends aminoacyl acceptor ends of serine tRNAs to control Mycobacterium tuberculosis growth” (Nature Communications, 2024):

Key:
MenT3 = molecular target: T1, MenT3 (Mycobacterium tuberculosis, UniProt P96356)
T1 construct: gene Rv1045

MenT1 = molecular target: T2, MenT1 (Mycobacterium tuberculosis, UniProt L7N686)
T2 construct: gene Rv0078A

PcnA = PcnA (Mycobacterium tuberculosis, UniProt L7N672)
PcnA, sequence (L7N672 entry or part of it): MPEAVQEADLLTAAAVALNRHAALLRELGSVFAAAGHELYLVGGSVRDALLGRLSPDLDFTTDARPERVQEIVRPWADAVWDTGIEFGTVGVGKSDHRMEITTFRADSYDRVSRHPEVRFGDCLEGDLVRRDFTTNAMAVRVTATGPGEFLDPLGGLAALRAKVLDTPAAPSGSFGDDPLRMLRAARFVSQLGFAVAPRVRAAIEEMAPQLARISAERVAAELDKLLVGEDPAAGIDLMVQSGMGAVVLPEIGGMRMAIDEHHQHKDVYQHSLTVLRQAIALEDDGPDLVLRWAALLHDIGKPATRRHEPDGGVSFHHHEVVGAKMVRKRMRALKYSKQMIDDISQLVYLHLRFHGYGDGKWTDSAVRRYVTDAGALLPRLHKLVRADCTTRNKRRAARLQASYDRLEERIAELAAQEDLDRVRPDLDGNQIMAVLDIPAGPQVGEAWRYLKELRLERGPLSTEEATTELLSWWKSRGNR

T1 sequence (P96356 1-293): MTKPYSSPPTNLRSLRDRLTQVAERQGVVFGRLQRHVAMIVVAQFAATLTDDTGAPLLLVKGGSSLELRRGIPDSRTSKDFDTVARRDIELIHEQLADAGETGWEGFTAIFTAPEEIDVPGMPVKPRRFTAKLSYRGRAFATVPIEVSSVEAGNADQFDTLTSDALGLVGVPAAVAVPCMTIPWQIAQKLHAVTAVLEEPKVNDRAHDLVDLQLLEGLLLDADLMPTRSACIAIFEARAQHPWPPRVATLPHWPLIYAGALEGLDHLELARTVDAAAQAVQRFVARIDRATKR
T2 sequence (L7N686 1-197): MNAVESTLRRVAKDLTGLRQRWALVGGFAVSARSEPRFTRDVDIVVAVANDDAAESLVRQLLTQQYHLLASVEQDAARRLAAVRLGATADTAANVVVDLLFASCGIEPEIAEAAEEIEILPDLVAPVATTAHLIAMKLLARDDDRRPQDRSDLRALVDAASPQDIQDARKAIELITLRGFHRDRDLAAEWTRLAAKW

Nc1ccn([C@@H]2O[C@H](COP(=O)(O)OP(=O)(O)OP(=O)(O)O)[C@@H](O)[C@H]2O)c(=O)n1 [CTP]
transfer of alpha-32P nucleotide to tRNA, urea-PAGE autoradiography (MenT3): CTP is by far the preferred nucleotide substrate of MenT3 in vitro
transfer of alpha-32P nucleotide to tRNA, urea-PAGE autoradiography (MenT1): in the presence of α-32P labeled CTP for MenT1 and MenT3

O=P(O)(O)OP(=O)(O)O [inorganic pyrophosphate]
pyrophosphorolysis of labelled tRNA, urea-PAGE autoradiography (PcnA): PcnA is indeed capable of generating truncated tRNA^Ser-4ΔA and ΔCA from MenT3-modified tRNA
